Consider 18 compounds from patent US5070210A, “Novel ketenimines as intermediates for insecticides” (ICI Americas Inc., priority 1990, dated 1991).

What all share (assay type): in vivo
Test [1] has as its system Tobacco Budworm [Heliothis virescens (Fabricius)] eggs. Briefly: Tobacco budworm egg test. The note with it: 2-day old eggs, percent in solution. The protocol: (§1) The compounds in Tables 1 and 2 above were tested for insecticidal activity using the following testing procedures. LC50 values, based on the results of these tests and calculated according to dosage-mortality curves, are expressed in Table 3.
Tobacco Budworm [Heliothis virescens (Fabricius)]:
(b). Eggs: Paper towel patches of 2-day old eggs of the tobacco budworm were dipped in acetone solutions of the test compound and placed in petri dishes containing a portion of larval rearing medium. Treated eggs were maintained at 78° F. and mortality was recorded after all control eggs had hatched and the young larvae were feeding on the media. Test concentrations ranged from 0.1% downward. The LC-50 value is expressed below in Table 3 under the heading "TBW-E" in terms of percent of the test compound in the solution.

Test [2] has as its system Housefly [Musca domestica]. The test can be described thus: Housefly insecticidal test. The note with it: μg per 25 female flies; mortality after 48 hours. On the procedure: as §1
Housefly [Musca domestica]:
Test compounds were diluted in acetone and aliquots pipetted onto the bottom of aluminum dishes. To ensure even spreading of the chemical on the bottom of the dishes, 1 ml of acetone containing 0.01% peanut oil was also added to each dish. After all solvents had evaporated, the dishes were placed in circular cardboard cages containing 25 female houseflies, 1-2 days old. The cages were covered on the bottom with cellophane and on the top with tulle netting, and each contained a sugar-water saturated cotton plug for maintenance of the flies. Mortality was recorded after 48 hours. Test levels ranged from 100 μg/25 female houseflies downward. The LC-50 value is expressed below in Table 3 under the heading "HF", in terms of μg of the test compound per 25 female flies.

Test [3] concerns Cabbage Looper [Trichoplusia ni (Hubner)]. The test can be described thus: Cabbage looper insecticidal test. The conditions noted are these: second-instar larvae, percent in solution; 3-5 days. On the procedure: as §1
Cabbage Looper [Trichoplusia ni (Hubner)]:
Test compounds were diluted in a 50-50 acetone-water solution. Cotyledons of hyzini squash (Calabacita abobrinha), approximately 1×1.5 inches, were immersed in the test solutions for 2-3 seconds and placed on a wire screen to dry. The dried leaves were placed in petri dishes containing a moistened piece of filter paper and infested with 5 second-instar cabbage looper larvae. The dishes were placed in a high humidity chamber. Mortality of the larvae was recorded 3-5 days later. Test concentrations ranged from 0.1% downward. The LC-50 value is expressed below in Table 3 under the heading "CL" in terms of percent of the test compound in solution.

Regarding `CC(C)C(=Nc1ccc2c(c1)OCO2)OCc1ccc(F)c(Oc2ccc(Cl)cc2)c1` [Compound 313], the “LC50, TBW, E (TBW-E)” value in test [1] stood at 0.013%. In addition, the “LC50, HF” value in test [2] is > 100 µg. The “LC50, CL” value in test [3] was found to be 0.00025%.
On the same counts, the results for `CC(C)C(=Nc1ccc(C#N)c(F)c1)OCc1cccc(Oc2ccc(F)cc2)c1` [Compound 222] are > 0.1%, 32 µg and 0.0015%.
In the case of `CC(C)C(=Nc1ccc2c(c1)OCO2)OCc1c(F)c(F)c(F)c(F)c1F` [Compound 464], the “LC50, TBW, E (TBW-E)” value in test [1] is reported as > 0.1%. Besides, in test [2], the “LC50, HF” value is > 100 µg. Besides, the “LC50, CL” value in test [3] turned out to be 0.08%.
For `CC(C)C(=Nc1ccc(C#N)cc1)OCc1cccc(Oc2ccc(F)cc2)c1` [Compound 227], the “LC50, TBW, E (TBW-E)” value in test [1] was determined as 0.1%. Further, the “LC50, HF” value in test [2] was determined as 10 µg. The “LC50, CL” value in test [3] is given as 0.0015%.
As for `COc1ccc(N=C(OCc2cccc(Oc3ccc(F)cc3)c2)C(C)C)cc1Cl` [Compound 110], the “LC50, TBW, E (TBW-E)” value in test [1] is reported as 0.04%. Further, the “LC50, HF” value in test [2] turned out to be 26 µg. In addition, the “LC50, CL” value in test [3] was found to be 0.007%.
Consider `CCC(=Nc1cccc(Cl)c1Cl)OCc1cccc(Oc2ccccc2)c1` [Compound 28], for which the “LC50, TBW, E (TBW-E)” value in test [1] is reported as > 0.1%. Besides, the “LC50, HF” value in test [2] is > 100 µg. The “LC50, CL” value in test [3] is 0.009%.
On the same counts, the results for `CC(Br)C(=Nc1ccc(F)c(Cl)c1)OCc1cccc(Oc2ccc(F)cc2)c1` (stereo not shown) [Compound 305] are > 0.1%, > 100 µg and 0.048%.
On to `CC(C)(C)C(=Nc1ccc(F)cc1)OCc1cccc(Oc2ccccc2)c1` [Compound 48], for which the “LC50, TBW, E (TBW-E)” value in test [1] is reported as > 0.05%. The “LC50, HF” value in test [2] is > 100 µg. The “LC50, CL” value in test [3] amounted to 0.03%.
As to `CC(C)C(=Nc1ccc(Cl)c(Cl)c1)OCc1cccc(Oc2cccc(F)c2)c1` [Compound 40], in test [1], the “LC50, TBW, E (TBW-E)” value was 0.08%. Besides, the “LC50, HF” value in test [2] stood at 36 µg. Moreover, the “LC50, CL” value in test [3] was 0.0025%.
On the same counts, the results for `CC(C)C(=Nc1ccc(F)c(Cl)c1)OC(C)c1cccc(Oc2ccccc2)n1` (stereo not shown) [Compound 498] are > 0.1%, 49 µg and 0.002%.
Turning to `Cc1cc(N=C(OCc2cccc(Oc3ccccc3)c2)C(C)C)ccc1Br` [Compound 127], the “LC50, TBW, E (TBW-E)” value in test [1] was found to be 0.04%. The “LC50, HF” value in test [2] was 58 µg. For the same compound, the “LC50, CL” value in test [3] is given as 0.01%.
The like results for `CC(C)C(=Nc1ccc(C(C)(C)C)c(Cl)c1)OCc1cccc(Oc2ccc(F)cc2)c1` [Compound 308] were, in that order, > 0.1%, > 100 µg and 0.009%.
With `Cc1cc(Br)ccc1N=C(OCc1cccc(Oc2ccccc2)c1)C(C)C` [Compound 133], the “LC50, TBW, E (TBW-E)” value in test [1] is 0.1%. In addition, the “LC50, HF” value in test [2] came out at 66 µg. For the same compound, in test [3], the “LC50, CL” value was 0.005%.
`CC(C)C(=Nc1cccc(C(F)(F)F)c1)OCc1cccc(Oc2ccc(Br)cc2)n1` [Compound 493]: the “LC50, TBW, E (TBW-E)” value in test [1] was found to be 0.05%. The “LC50, HF” value in test [2] amounted to 36 µg. In addition, the “LC50, CL” value in test [3] stood at 0.0008%.
Take `CC(C)C(=Nc1cccc(Oc2ccccn2)c1)OCc1cccc(Oc2ccccc2)c1` [Compound 114]: the “LC50, HF” value in test [2] was 92 µg. Further, the “LC50, CL” value in test [3] was < 0.1%.
Take `CC(C)C(=Nc1ccc(OC(F)(F)F)cc1)OCc1cccc(Cc2ccccc2)c1` [Compound 542]: the “LC50, HF” value in test [2] was > 100 µg. For the same compound, the “LC50, CL” value in test [3] is > 0.01%.
With `FC(F)(F)c1ccc(Oc2ccc(COC(=Nc3ccc(Cl)cc3)C(Cl)Cl)cc2)nc1` [Compound 453], the “LC50, HF” value in test [2] is > 100 µg. Further, the “LC50, CL” value in test [3] came to 0.1%.
As for `CC(C)C(=Nc1ccc(F)c(Cl)c1)OC(F)c1cccc(Oc2ccc(F)cc2)c1` (stereo not shown) [Compound 502], the “LC50, HF” value in test [2] worked out at 80 µg.
